Columns and labels:
Type in all cases: cell-based
A375 cells = assay: MTT cell viability assay in A375 cells; settings: Homo sapiens, A-375, 72 h, read-out: IC50 A375
Experimental: (§1) The MTT assay was used to assess the effect of the compounds on cell viability. For this purpose, A375 (1500 cells per well), BJ (10 000 cells per well), Caco-2 (4000 cells per well), HCT116 (3000 cells per well), Mia Paca-2 (2000 cells per well), SW480 (6000 cells per well), and SW620 (8000 cells per well) cells were seeded in 96-well plates and incubated for 24 h. Subsequently, the culture medium was switched with a new medium containing DMSO (control) or the compound at a specified concentration. Following a 72 h incubation period, the supernatant was aspirated, and 100 μL of a mixture (1 : 1) of filtered MTT solution (1 mg per mL PBS) and FBS-free medium was added. The plates were then incubated for 1 h at 37 °C. After this time, the supernatant was aspirated, and the formazan crystals were dissolved in 100 μL of DMSO in each well. Relative cell viability was calculated by measuring absorbance at 570 nm using a Benchmark Plus Microplate Reader (Bio-Rad Laboratories, Hercules, CA, USA). Results are presented as the mean ± standard deviation (SD) of IC50 values, determined by nonlinear regression analysis of dose–response curves (log(inhibitor) vs. response with variable slope (four parameters)) using GraphPad Prism 9 software (GraphPad Software, San Diego, CA, USA).

[1] = system: intracellular ROS levels in SW480 cells; assay: Intracellular ROS quantification assay (H2DCFDA, flow cytometry); settings: SW480, 6.3 μM
Experimental: Intracellular ROS levels can be quantified using lipophilic and non-fluorescent probes, such as 2′,7′-dichlorodihydrofluorescein diacetate (H2DCFDA).[60] To assess the effect of compound 17 on intracellular ROS levels, SW480 cells were treated with compound 17, followed by incubation with the H2DCFDA probe after 24, 48, and 72 h of treatment. After, the cells were subjected to flow cytometry to quantify the fluorescence intensity of 2′,7′-dichlorofluorescein (DCF), as shown in Fig. 9. […] Both effects of compound 17 contributed to the inhibition of SW480 cell growth.
SW480 cells were seeded at a density of 1.68 × 10^5 cells per well in 6-well plates and incubated at 37 °C for 24 h. The cells were then treated with compound 17 (IC50 value) for 24, 48, or 72 h. The adherent cells were trypsinized, washed with DPBS, collected by centrifugation, and resuspended in 1 mL of HBSS containing 50 μM H2DCFDA probe and 2 mM L-glutamine. After 45 min of incubation at 37 °C in a cell culture incubator, the cell suspensions were washed with 2 mL DPBS and collected by centrifugation. The cells were then stained with 350 μL of DPBS containing 20 μg per mL PI solution (1 mg mL^−1). Inside the cells, the H2DCFDA probe is deacetylated and undergoes oxidation in the presence of ROS, transforming into a DCF fluorescent compound. The fluorescence emitted by DCF from 1 × 10^4 PI-negative cells was measured at 520 nm using a Gallios flow cytometer (Beckman Coulter, Brea, CA, USA).

cyclin A = assay: Western blot of cyclin A levels in SW480 cells; settings: SW480, 6.3 μM, relative to control
Experimental: (§2) SW480 cells were seeded in 6-well plates and treated as described in the previous subsection. After 24, 48 or 72 h of incubation, adherent cells were washed twice with ice-cold DPBS and incubated with lysis buffer (0.2% Triton X-100, 0.5 mM sodium deoxycholate, 1 mM Na-EDTA, 1 mM DTT, 20 mM Tris–HCl (pH 7.5), 0.5% phosphatases inhibitor cocktail, and 1% proteases inhibitor cocktail) for 30 min at 4 °C. The cells were scraped, sonicated, and centrifuged at 120 00 × g (20 min at 4 °C). […] The gels were then transferred to PVDF membranes, which were blocked with 5% skim milk in PBS-Tween-20 (0.1%) for 1 h at room temperature. Subsequently, the membranes were incubated with the primary antibodies for 30 mi at room temperature (actin) or overnight at 4 °C (CDK4, CDK6, cyclin A, Rb and SOD2/MnSOD). After incubation, the membranes were washed with PBS-Tween-20 (0.1%) and incubated with anti-mouse secondary antibody (40 min) or anti-rabbit secondary antibody (1 h) at room temperature. Finally, the membranes were washed with PBS-Tween-20 (0.1%) and treated with the Immobilon Western Chemiluminescent HRP Substrate Kit, and autoradiography was performed using an FPM-100A film processor (Fujifilm, Tokyo, Japan). western blot results were obtained from three independent experiments, except for cyclin A at 24 h (n = 2), Rb protein at 24 and 72 h (n = 2), and SOD2 (MnSOD) at 72 h (n = 2).

CDK6 = assay: Western blot of CDK6 levels in SW480 cells; settings: SW480, 6.3 μM, relative to control
Experimental: as §2

Mia Paca-2 cells = assay: MTT cell viability assay in Mia Paca-2 cells; settings: Homo sapiens, MIA PaCa-2, 72 h, read-out: IC50 Mia Paca-2
Experimental: as §1

SW480 cells = assay: Cell proliferation assay and cell doubling time; settings: 6.3 μM, ln(2)/cell growth rate
Description: Cell growth rates represent a characteristic of cell lines, indicating the rate at which the cell population size changes over time.[29] The commonly used metric for assessing the cell growth rate is the cell doubling time, which denotes the time required for a cell population to double in size. Cell doubling time can be estimated using the following formula: ln(2)/cell growth rate.[30] A time-dependent cell growth curve was constructed to elucidate the effect of compound 17 on the growth pattern of SW480 cells (Fig. 4). […] The cell concentration at each time point allowed us to determine the cell growth rate and subsequently calculate the cell doubling time. Compound 17 induced an increase in the doubling time of SW480 cells (69 h) compared to the control group (43 h). In summary, compound 17 affected the growth pattern of SW480 cells by increasing the cell doubling time, consequently decreasing the cell growth rate.
SW480 cells (1.68 × 10^5 cells per well) were seeded in 6-well plates and incubated at 37 °C for 24 h. The cells were then treated with compound 17 (IC50 value) for 24, 48 or 72 h. […] Cell viability was determined using the Invitrogen Countess 3 Automated Cell Counter (Thermo Fisher Scientific, Waltham, MA, USA). […]

## CC(=O)Oc1c(C(C)C)cc2c(c1OC(C)=O)[C@@]1(NC(=O)OCC(C)C)CCCC(C)(C)[C@@H]1CC2 [Compound 17, (4bR,8aS)-8,8-Dimethyl-4b-{[(2-methylpropoxy)carbonyl]amino}-2-(propan-2-yl)-4b,5,6,7,8,8a,9,10-octahydrophenanthrene-3,4-diyl diacetate]
A375 cells
  IC50: 6.7 ± 0.5 µM
[1]; 24 h (control 100%)
  intracellular ROS levels relative to untreated cells: 70%
[1]; 48 h (control 100%)
  intracellular ROS levels relative to untreated cells: 157%
[1]; 72 h (control 100%)
  intracellular ROS levels relative to untreated cells: 290%
Cyclin A; 24 h
  cyclin A expression: decrease
Cyclin A; 48 h
  cyclin A expression: did not affect
CDK6; 24 h
  CDK6 protein level: significantly reduced
CDK6; 48 h
  CDK6 protein level: lower than those in the control group
Mia Paca-2 cells
  IC50: 7.5 ± 0.6 µM
SW480 cells
  cell doubling time: 69 h

Reference: article PMC12498136, “Synthesis and biological evaluation of novel carnosic acid derivatives with anticancer activity” (RSC Advances, 2025)
